Where a SMILES comes first, the peptide text is derived from it. Bridges are numbered along the chain shown (N, C = ends). [ ]: non-standard residue; d: D form. The star is where a group is joined. X1 = O=C(O)CN1CCN(CC(=O)O)CCN(CC(=O)N[C@@H](CS(=O)(=O)O)C(=O)N[C@@H](CCCCNC(=O)CCCc2ccc(I)cc2)C(=O)*)CCN(CC(=O)O)CC1; 2Nal = N[C@@H](Cc1ccc2ccccc2c1)C(=O)O; Lys(iPr) = CC(C)NCCCC[C@H](N)C(=O)O
Assay: in vivo
Design: species or system mice
Settings: male, mouse, iv, total radioactivity
Description: The Z138 Mantle cell lymphoma cell line was purchased from the American Type Culture Collection (ATCC©CRL-3001). The cell line was cultured in a 5% CO2 atmosphere at 37° C. in a humidified incubator with IMDM medium supplemented with 10% fetal bovine serum, 100 I.U./mL penicillin, and 100 μg/mL streptomycin.
[^68Ga]GaCl3 was eluted from an iThemba Labs generator with a total of 4 mL of 0.1 M HCl. The eluted [^68Ga]GaCl3 solution was added to 2 mL of concentrated HCl. This radioactive mixture was then added to a DGA resin column and washed with 3 mL of 5 M HCl. The column was then dried with air and the [^68Ga]GaCl3 (0.10-0.50 GBq) was eluted with 0.5 mL of water into a vial containing a solution of the unlabeled precursor (25 μg) in 0.7 mL HEPES buffer (2 M, pH 5.3). The reaction mixture was heated in a microwave oven (Danby; DMW7700WDB) for 1 min at power setting 2. The mixture was purified by semi-prep HPLC and quality control was performed via analytical HPLC with the co-injection of the unlabeled standard with a one-twelfth of the radiotracer. Radiochemical yields (decay-corrected) were >50% and radiochemical purities were >95%.
Animal experiments were performed in accordance with guidelines established by the Canadian Council on Animal Care, under a research protocol approved by the Animal Ethics Committee of the University of British Columbia. For all studies, male NOD.Cg-Rag1tm1Momll2rgtm1Wjl/SzJ (NRG) mice were used and cells injected in a 100 μL solution of 1:1 ratio of PBS/Matrigel. For preclinical imaging and biodistribution studies, 5×10^6 cells of Z138, cells were subcutaneously inoculated on the left or right flank and tumors were grown to a size of 200-300 mm^3. […]
Under isoflurane anesthesia (2-2.5% isoflurane in 2 L/min 02), mice were injected intravenously with [^68Ga]Ga-BL34L6 or [^68Ga]Ga-BL34L7. Mice were euthanized by CO2 inhalation after anesthesia with isoflurane. Tissues were harvested, washed in PBS, patted dry, weighed, and then assayed radioactivity on a gamma counter. Counted radioactivities were converted to percentage injected dose per gram of tissue (% ID/g) using a calibration curve.

[1] = NOD.Cg-Rag1tm1Mom Il2rgtm1Wjl/SzJ (NRG), Biodistribution: Adrenals
[2] = NOD.Cg-Rag1tm1Mom Il2rgtm1Wjl/SzJ (NRG), Biodistribution: Bone
[3] = NOD.Cg-Rag1tm1Mom Il2rgtm1Wjl/SzJ (NRG), Biodistribution: Brain
[4] = NOD.Cg-Rag1tm1Mom Il2rgtm1Wjl/SzJ (NRG), Biodistribution: Heart
[5] = NOD.Cg-Rag1tm1Mom Il2rgtm1Wjl/SzJ (NRG), Biodistribution: Kidneys
[6] = NOD.Cg-Rag1tm1Mom Il2rgtm1Wjl/SzJ (NRG), Biodistribution: Liver
[7] = NOD.Cg-Rag1tm1Mom Il2rgtm1Wjl/SzJ (NRG), Biodistribution: Lungs
[8] = NOD.Cg-Rag1tm1Mom Il2rgtm1Wjl/SzJ (NRG), Biodistribution: Muscle
[9] = NOD.Cg-Rag1tm1Mom Il2rgtm1Wjl/SzJ (NRG), Biodistribution: Pancreas
[10] = NOD.Cg-Rag1tm1Mom Il2rgtm1Wjl/SzJ (NRG), Biodistribution: Small Intestine
[11] = NOD.Cg-Rag1tm1Mom Il2rgtm1Wjl/SzJ (NRG), Biodistribution: Spleen
[12] = NOD.Cg-Rag1tm1Mom Il2rgtm1Wjl/SzJ (NRG), Biodistribution: Z138 Tumor
[13] = NOD.Cg-Rag1tm1Mom Il2rgtm1Wjl/SzJ (NRG), Ratio Tumor-to-Blood
[14] = NOD.Cg-Rag1tm1Momll2rgtm1Wjl/SzJ (NRG), Biodistribution: Blood
[15] = NOD.Cg-Rag1tm1Momll2rgtm1Wjl/SzJ (NRG), Biodistribution: Stomach
[16] = NOD.Cg-Rag1tm1Momll2rgtm1Wjl/SzJ (NRG), Biodistribution: Testes
[17] = NOD.Cg-Rag1tm1Momll2rgtm1Wjl/SzJ (NRG), Ratio Tumor-to-Bone
[18] = NOD.Cg-Rag1tm1Momll2rgtm1Wjl/SzJ (NRG), Ratio Tumor-to-Kidney
[19] = NOD.Cg-Rag1tm1Momll2rgtm1Wjl/SzJ (NRG), Ratio Tumor-to-Muscle
[20] = NOD.Cg-Rag1tm1Momll2rgtm1Wjl/SzJ (NRG), Ratio Tumor-to-Pancreas

Structure (SMILES): CC(C)NCCCC[C@H](NC(=O)[C@H]1CCC(=O)N[C@@H](CCCCNC(=O)[C@H](CCCCNC(=O)CCCc2ccc(I)cc2)NC(=O)[C@H](CS(=O)(=O)O)NC(=O)CN2CCN(CC(=O)O)CCN(CC(=O)O)CCN(CC(=O)O)CC2)C(=O)N[C@@H](Cc2ccc(O)cc2)C(=O)N[C@@H](CCCCNC(C)C)C(=O)N[C@H](CCCNC(=N)N)C(=O)N[C@@H](Cc2ccc3ccccc3c2)C(=O)N[C@H](C)C(=O)N1)C(N)=O [[^177Lu]Lu-BL34L11, metal not drawn] (K(X1)Y[Lys(iPr)][dR][2Nal][dA][dE][Lys(iPr)]-NH2; lactam N-7)
- tissue uptake at 24 h [1]: 2.44 %ID/g
- tissue uptake at 72 h [1]: 1.8 %ID/g
- tissue uptake at 120 h [1]: 1.62 %ID/g
- tissue uptake at 24 h [2]: 0.71 %ID/g
- tissue uptake at 72 h [2]: 0.42 %ID/g
- tissue uptake at 120 h [2]: 0.29 %ID/g
- tissue uptake at 24 h [3]: 0.18 %ID/g
- tissue uptake at 72 h [3]: 0.07 %ID/g
- tissue uptake at 120 h [3]: 0.05 %ID/g
- tissue uptake at 24 h [4]: 1.8 %ID/g
- tissue uptake at 72 h [4]: 1.1 %ID/g
- tissue uptake at 120 h [4]: 0.76 %ID/g
- tissue uptake at 24 h [5]: 2.67 %ID/g
- tissue uptake at 72 h [5]: 1.19 %ID/g
- tissue uptake at 120 h [5]: 0.75 %ID/g
- tissue uptake at 24 h [6]: 1.99 %ID/g
- tissue uptake at 72 h [6]: 1.1 %ID/g
- tissue uptake at 120 h [6]: 0.45 %ID/g
- tissue uptake at 24 h [7]: 4.88 %ID/g
- tissue uptake at 72 h [7]: 2.86 %ID/g
- tissue uptake at 120 h [7]: 1.91 %ID/g
- tissue uptake at 24 h [8]: 0.76 %ID/g
- tissue uptake at 72 h [8]: 0.38 %ID/g
- tissue uptake at 120 h [8]: 0.21 %ID/g
- tissue uptake at 24 h [9]: 1.05 %ID/g
- tissue uptake at 72 h [9]: 0.45 %ID/g
- tissue uptake at 120 h [9]: 0.53 %ID/g
- tissue uptake at 24 h [10]: 0.79 %ID/g
- tissue uptake at 72 h [10]: 0.38 %ID/g
- tissue uptake at 120 h [10]: 0.21 %ID/g
- tissue uptake at 24 h [11]: 2.13 %ID/g
- tissue uptake at 72 h [11]: 1.96 %ID/g
- tissue uptake at 120 h [11]: 1.86 %ID/g
- tissue uptake at 24 h [12]: 26.6 %ID/g
- tissue uptake at 72 h [12]: 35 %ID/g
- tissue uptake at 120 h [12]: 41.2 %ID/g
- tissue to tissue ratio at 24 h [13]: 3.42
- tissue to tissue ratio at 72 h [13]: 12.3
- tissue to tissue ratio at 120 h [13]: 25
- tissue to tissue ratio at 72 h (NOD.Cg-Rag1tm1Mom Il2rgtm1Wjl/SzJ (NRG), Ratio Tumor-to-Muscle): 91.8
- tissue uptake at 24 h [14]: 7.82 %ID/g
- tissue uptake at 72 h [14]: 2.84 %ID/g
- tissue uptake at 120 h [14]: 1.6 %ID/g
- tissue uptake at 24 h [15]: 0.75 %ID/g
- tissue uptake at 72 h [15]: 0.32 %ID/g
- tissue uptake at 120 h [15]: 0.24 %ID/g
- tissue uptake at 24 h [16]: 2.64 %ID/g
- tissue uptake at 72 h [16]: 1.47 %ID/g
- tissue uptake at 120 h [16]: 2.04 %ID/g
- tissue to tissue ratio at 24 h [17]: 28.3
- tissue to tissue ratio at 72 h [17]: 53.7
- tissue to tissue ratio at 120 h [17]: 55.9
- tissue to tissue ratio at 24 h [18]: 10.1
- tissue to tissue ratio at 72 h [18]: 29.3
- tissue to tissue ratio at 120 h [18]: 54.2
- tissue to tissue ratio at 24 h [19]: 35.8
- tissue to tissue ratio at 120 h [19]: 190
- tissue to tissue ratio at 24 h [20]: 25.9
- tissue to tissue ratio at 72 h [20]: 71.7
- tissue to tissue ratio at 120 h [20]: 122

Source: patent publication US20250242064A1, “CXCR4-TARGETING COMPOUNDS, AND METHODS OF MAKING AND USING THE SAME” (PROVINCIAL HEALTH SERVICES AUTHORITY, priority 2022, published 2025)
